Source: patent publication US20160168126A1, “CHEMICAL COMPOUNDS” (SYNGENTA LIMITED, priority 2013, published 2016)

Tested on: a variety of test species
Assay: Post-emergence herbicidal activity (glasshouse, sprayed 8 days after sowing, evaluated after 13 days)
Type: in vivo
Details: 1000 g/ha, scale 0-5
Description: Seeds of a variety of test species were sown in standard soil in pots. After 8 days cultivation (post-emergence) under controlled conditions in a glasshouse (at 24/16° C., day/night; 14 hours light; 65% humidity), the plants were sprayed with an aqueous spray solution derived from the formulation of the technical active ingredient in acetone/water (50:50) solution containing 0.5% Tween 20 (polyoxyethelyene sorbitan monolaurate, CAS RN 9005-64-5). The test plants were then grown in a glasshouse under controlled conditions (at 24/16° C., day/night; 14 hours light; 65% humidity) and watered twice daily. After 13 days, the test was evaluated (5=total damage to plant; 0=no damage to plant).

Compound | Post-emergence herbicidal damage score, ABUTH (Abutilon theophrasti) | Post-emergence herbicidal damage score, ALOMY (Alopecurus myosuroides) | Post-emergence herbicidal damage score, AMARE (Amaranthus retroflexus) | Post-emergence herbicidal damage score, ECHCG (Echinochloa crus-galli) | Post-emergence herbicidal damage score, SETFA (Setaria faberi) | Post-emergence herbicidal damage score, ZEAMX (Zea mays)
CC1=C(Cl)C(O)N(c2ccn(C)n2)C1=O (stereo not drawn) [Compound B31] | 0 | 1 | 3 | 1 | 1 | 1
CC1=C(Cl)C(O)N(c2cc(Cc3ccccc3)n(C)n2)C1=O (stereo not drawn) [Compound B32] | 5 | 2 | 3 | 3 | 4 | 0
CCn1nc(N2C(=O)C(C)=C(Cl)C2O)cc1C(F)(F)F (stereo not drawn) [Compound C1] | 3 | 3 | 5 | 4 | 0 | 1
CCn1nc(N2C(=O)C(C)=C(Cl)C2O)cc1C(C)(C)C (stereo not drawn) [Compound C2] | 5 | 3 | 4 | 4 | 4 | 0
CCn1nc(N2C(=O)C(C)=C(Cl)C2O)c2c1C(C)(C)CC2 (stereo not drawn) [Compound C3] | 5 | 4 | 5 | 5 | 5 | 1
CC1=C(Cl)C(O)N(c2cc(C(F)(F)F)n(C(C)C)n2)C1=O (stereo not drawn) [Compound C4] | 0 | 0 | 1 | 1 | 1 | 1
CC1=C(Cl)C(O)N(c2cc(C(F)(F)F)n(CC(F)(F)F)n2)C1=O (stereo not drawn) [Compound C5] | 2 | 0 | 1 | 0 | 0 | 3
CC1=C(Cl)C(O)N(c2cc(C)n(C(F)F)n2)C1=O (stereo not drawn) [Compound C6] | 1 | 0 | 2 | 0 | 2 | 1
CC1=C(Cl)C(O)N(c2cc(C#N)n(CC(F)(F)F)n2)C1=O (stereo not drawn) [Compound C7] | 3 | 0 | 0 | 0 | 1 | 0
CC1=C(Cl)C(O)N(c2nn(CC(F)(F)F)c(C)c2C#N)C1=O (stereo not drawn) [Compound C8] | 0 | 0 | 1 | 0 | 0 | 0
